Laboratory results as given in patent US20060269942A1, “In situ click chemistry method for screening high affinity molecular imaging probes” (priority 2005, published 2006).
pKd: −log10 of the molar value. Read-outs that look alike come from different tables or passages of the source.

Legend:
[1] = molecular target: T1, bovine carbonic anhydrase II (Bos taurus, UniProt P00921); assay: Titration of bovine carbonic anhydrase II with DNSA (fluorescence); assay type: binding
T1 construct: Carbonic anhydrase II from bovine erythrocytes; purchased Sigma-Aldrich C2522; host or cells: bovine erythrocytes (natural source)
Text: (§1) General. Carbonic anhydrase II from bovine erythrocytes (Sigma-Aldrich, catalog number C2522; lot number 083K9295, 4,014 Wilbur-Anderson units/mg, 90% protein content by Biuret) was used for in situ click chemistry experiments and for the determination of binding constants. We tested the protein by SDS gel electrophoresis and found it to display a single band corresponding to 29-30,000 molecular weight units. Carbonic anhydrase II from human erythrocytes (Sigma Aldrich, catalog number C-6165, 4,260 wilbur-anderson units/mg) was used for the determination of binding affinities for the human enzyme. All fluorescence measurements were performed on a SPECTRA MAX GEMINI fluorescence plate reader at 37° C. […]
(§2) General. The fluorescence competition assay developed by Whitesides et al. (J. Am. Chem. Soc. 1994, 116, 5057) and J. C. […] The assay is based on the observation that the only fluorescence signal detected at 460 nm upon excitation at 290 nm, an absorption minimum for DNSA, is that of the DNSA·CA complex. With increasing sample concentration the fluorescence intensity due to DNSA·CA decreases as a result of competition with the test compound, allowing the determination of dissociation constants from Scatchard plots. […] The Kd values were determined from Scatchard plots using the equation below as described by Whitesides et.al. [CA·Inh]/[CA]tot·[Inh]=K11inh−K11inh{[CA·Inh]+[CA·DNSA]}/([CA]tot) […]

[2] = molecular target: T2, human carbonic anhydrase II (Homo sapiens, UniProt P00918); assay: Titration of human carbonic anhydrase II with DNSA (fluorescence); assay type: binding; details: enzyme 200 nM in pH 7.4 phosphate buffer, titrated with DNSA; read-out: dissociation constant (Kd) of CA·DNSA
T2 construct: Carbonic anhydrase II from human erythrocytes; purchased Sigma Aldrich C-6165; host or cells: human erythrocytes (natural source)
Text: as §1, §2

carbonic anhydrase II = molecular target: T3, carbonic anhydrase II (Bos taurus, UniProt P00921); assay: DNSA fluorescence competition binding assay for carbonic anhydrase II; details: in situ hit of FIG. 4 screen; enzyme species not stated at the place (bovine CA-II used for the screen and binding constants)
T3 construct: Carbonic anhydrase II from bovine erythrocytes; purchased Sigma-Aldrich C2522; host or cells: bovine erythrocytes (natural source)
Text: as §1, §2

T1 sequence (P00921 whole entry): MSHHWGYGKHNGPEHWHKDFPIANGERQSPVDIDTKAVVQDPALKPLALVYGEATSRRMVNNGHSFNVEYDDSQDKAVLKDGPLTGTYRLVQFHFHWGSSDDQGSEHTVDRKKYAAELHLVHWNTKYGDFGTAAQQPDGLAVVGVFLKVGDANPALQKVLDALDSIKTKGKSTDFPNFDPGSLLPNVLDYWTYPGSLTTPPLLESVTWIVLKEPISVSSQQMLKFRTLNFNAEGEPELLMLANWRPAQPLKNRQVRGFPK
T3 sequence (P00921 whole entry): as above

How did the pKd ([1]; determined by titration experiments, value used in the mass balance, enzyme species not stated, read-out: dissociation constant Kd for DNSA) turn out when `CN(C)c1cccc2c(S(N)(=O)=O)cccc12` [DNSA] was run?
Its pKd is 6.41.

And the pKd ([1]; enzyme 200 nM in pH 7.4 phosphate buffer, titrated with DNSA, read-out: dissociation constant (Kd) of CA·DNSA)?
The pKd was 6.41.

What about the pKd [2] of the same compound?
Its pKd is 6.37.

`CC(C)[C@@H](C(=O)NCc1cc(F)ccn1)n1cc(-c2ccc(S(N)(=O)=O)cc2)nn1` [the product] was tested. Which pKd (carbonic anhydrase II) did it give?
Its pKd is 9.30.
